In the supplement of paper PMC8617591:

How the values were obtained:
[1] = system: Mycobacterium tuberculosis Erdman (autoluminescent); experiment: AUC25, normalised area under dose response up to IC25 (fraction (0-1)); higher = more potent at low dose
Protocol: (§1)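 DiaMOND equipotent two-drug combination dose responses against autoluminescent M. tuberculosis Erdman in 8 in vitro models. Read-out is OD600, or luminescence for the intracellular and dormancy models, normalised to untreated wells. Hill-fit Einf, AUC25 and GRinf are potency metrics; FIC50 and FIC90 are Loewe-additivity fractional inhibitory concentrations, given as log2 (negative = synergy). Replicates are averaged.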

[2] = system: Mycobacterium tuberculosis Erdman (autoluminescent); experiment: Einf, fitted maximum growth inhibition of combination (fraction); higher = stronger maximal inhibition
Protocol: as §1

[3] = system: Mycobacterium tuberculosis Erdman (autoluminescent); experiment: FIC90 (Loewe) at 90% inhibition (log2); higher = more antagonistic
Protocol: as §1

[4] = system: Mycobacterium tuberculosis Erdman (autoluminescent); experiment: GRinf, maximum normalised growth rate inhibition (unitless (-1 to 1)); higher = less effect (negative = killing)
Protocol: as §1

[5] = system: Mycobacterium tuberculosis Erdman (autoluminescent); experiment: FIC50 (Loewe) at 50% inhibition (log2); higher = more antagonistic
Protocol: as §1

CC[C@@H](CO)NCCN[C@@H](CC)CO [ethambutol] + CO[C@H]1/C=C/O[C@@]2(C)Oc3c(C)c(O)c4c(O)c(c(/C=N/N5CCN(C6CCCC6)CC5)c(O)c4c3C2=O)NC(=O)/C(C)=C\C=C\[C@H](C)[C@H](O)[C@@H](C)[C@@H](O)[C@@H](C)[C@H](OC(C)=O)[C@@H]1C [rifapentine]
Conditions	AUC25, [1]	Einf, [2]	FIC50, [5]	FIC90, [3]	GRinf, [4]
in vitro model: acidic pH 5.7, time point: constant (~7 days, model-specific)	0.0932	0.893	-0.302	–	-0.289
in vitro model: acidic pH 5.7, time point: terminal (~4-5 doublings, model-specific)	0.0462	0.985	0.0731	-0.209	-0.287
in vitro model: intracellular J774, time point: constant = terminal	–	0.959	–	-2.62	-0.236

Conditions	AUC25, [1]	Einf, [2]	FIC50, [5]	FIC90, [3]	GRinf, [4]
in vitro model: butyrate, time point: constant (~7 days, model-specific)	0.0627	0.91	0.244	–	0.0321
in vitro model: butyrate, time point: terminal (~4-5 doublings, model-specific)	0.0478	0.959	0.226	-0.659	0.0099
in vitro model: cholesterol 0.05 mM, time point: constant (~7 days, model-specific)	0.118	0.694	0.509	–	-0.191
in vitro model: cholesterol 0.05 mM, time point: terminal (~4-5 doublings, model-specific)	0.0857	0.889	0.404	–	-0.163
in vitro model: cholesterol-high 0.2 mM, time point: constant (~7 days, model-specific)	0.0262	0.944	0.734	–	-0.482
in vitro model: cholesterol-high 0.2 mM, time point: terminal (~4-5 doublings, model-specific)	0.0335	1	0.916	0.787	-0.739
in vitro model: dormancy (butyrate + nitrate, low O2), time point: constant (~7 days, model-specific)	0.103	0.855	0.28	–	0.366
in vitro model: dormancy (butyrate + nitrate, low O2), time point: terminal (~4-5 doublings, model-specific)	0.119	0.99	0.137	0.579	-0.485
in vitro model: standard 7H9 glycerol, time point: constant = terminal	0.0363	0.939	0.0721	-0.243	-0.0574
in vitro model: valerate, time point: constant (~7 days, model-specific)	0.0721	0.874	0.0991	–	0.0371
in vitro model: valerate, time point: terminal (~4-5 doublings, model-specific)	0.034	0.935	0.275	-0.509	0.0428

NNC(=O)c1ccncc1 [isoniazid] + COc1c(N2C[C@@H]3CCCN[C@@H]3C2)c(F)cc2c(=O)c(C(=O)O)cn(C3CC3)c12 [moxifloxacin]
Conditions	AUC25, [1]	Einf, [2]	FIC50, [5]	FIC90, [3]	GRinf, [4]
in vitro model: acidic pH 5.7, time point: constant (~7 days, model-specific)	0.108	0.704	0.476	–	-0.263
in vitro model: acidic pH 5.7, time point: terminal (~4-5 doublings, model-specific)	0.0673	0.923	0.361	0.444	-0.118
in vitro model: intracellular J774, time point: constant = terminal	–	0.993	–	0.465	-0.405

Conditions	AUC25, [1]	Einf, [2]	FIC50, [5]	FIC90, [3]	GRinf, [4]
in vitro model: butyrate, time point: constant (~7 days, model-specific)	0.0638	0.926	0.0921	0.134	-0.0481
in vitro model: butyrate, time point: terminal (~4-5 doublings, model-specific)	0.0457	0.969	0.0505	-0.0232	-0.0694
in vitro model: cholesterol 0.05 mM, time point: constant (~7 days, model-specific)	0.121	0.756	0.0749	–	-0.309
in vitro model: cholesterol 0.05 mM, time point: terminal (~4-5 doublings, model-specific)	0.096	0.962	0.0269	0.468	-0.301
in vitro model: cholesterol-high 0.2 mM, time point: constant (~7 days, model-specific)	0.079	0.953	0.049	0.277	-0.524
in vitro model: cholesterol-high 0.2 mM, time point: terminal (~4-5 doublings, model-specific)	0.057	0.995	0.314	0.00349	-0.639
in vitro model: dormancy (butyrate + nitrate, low O2), time point: constant (~7 days, model-specific)	0.076	0.91	0.000113	-0.385	0.143
in vitro model: dormancy (butyrate + nitrate, low O2), time point: terminal (~4-5 doublings, model-specific)	0.0785	0.985	0.0985	0.553	-0.158
in vitro model: standard 7H9 glycerol, time point: constant = terminal	0.0762	0.981	0.317	0.332	-0.218
in vitro model: valerate, time point: constant (~7 days, model-specific)	0.0691	0.863	0.215	–	0.0468
in vitro model: valerate, time point: terminal (~4-5 doublings, model-specific)	0.0467	0.94	0.279	0.294	0.0344

NNC(=O)c1ccncc1 [isoniazid] + CC(=O)NC[C@H]1CN(c2ccc(N3CCOCC3)c(F)c2)C(=O)O1 [linezolid]
Conditions	AUC25, [1]	Einf, [2]	FIC50, [5]	FIC90, [3]	GRinf, [4]
in vitro model: acidic pH 5.7, time point: constant (~7 days, model-specific)	0.0979	0.795	0.0411	–	-0.178
in vitro model: acidic pH 5.7, time point: terminal (~4-5 doublings, model-specific)	0.0773	0.963	0.877	0.0348	-0.173
in vitro model: intracellular J774, time point: constant = terminal	–	0.915	–	0.155	-0.0635

Conditions	AUC25, [1]	Einf, [2]	FIC50, [5]	FIC90, [3]	GRinf, [4]
in vitro model: butyrate, time point: constant (~7 days, model-specific)	0.0801	0.917	0.754	0.923	0.00442
in vitro model: butyrate, time point: terminal (~4-5 doublings, model-specific)	0.0539	0.959	0.657	0.547	0.0109
in vitro model: cholesterol 0.05 mM, time point: constant (~7 days, model-specific)	0.129	0.677	0.121	–	-0.0433
in vitro model: cholesterol 0.05 mM, time point: terminal (~4-5 doublings, model-specific)	0.14	0.945	4.49	-0.681	-0.23
in vitro model: cholesterol-high 0.2 mM, time point: constant (~7 days, model-specific)	0.127	0.928	-0.123	0.0406	-0.371
in vitro model: cholesterol-high 0.2 mM, time point: terminal (~4-5 doublings, model-specific)	0.119	1	-0.0744	0.498	-0.893
in vitro model: dormancy (butyrate + nitrate, low O2), time point: constant (~7 days, model-specific)	0.0528	0.912	1.45	0.856	0.109
in vitro model: dormancy (butyrate + nitrate, low O2), time point: terminal (~4-5 doublings, model-specific)	0.0354	0.989	1.06	0.558	0.00877
in vitro model: standard 7H9 glycerol, time point: constant = terminal	0.0758	0.909	0.116	0.045	0.137
in vitro model: valerate, time point: constant (~7 days, model-specific)	0.0661	0.818	0.548	–	0.0896
in vitro model: valerate, time point: terminal (~4-5 doublings, model-specific)	0.0441	0.916	0.612	0.861	0.0931

NC(=O)c1cnccn1 [pyrazinamide] + CO[C@H]1/C=C/O[C@@]2(C)Oc3c(C)c(O)c4c(O)c(c(/C=N/N5CCN(C)CC5)c(O)c4c3C2=O)NC(=O)/C(C)=C\C=C\[C@H](C)[C@H](O)[C@@H](C)[C@@H](O)[C@@H](C)[C@H](OC(C)=O)[C@@H]1C [rifampicin]
Conditions	AUC25, [1]	Einf, [2]	FIC50, [5]	FIC90, [3]	GRinf, [4]
in vitro model: acidic pH 5.7, time point: constant (~7 days, model-specific)	0.0773	0.932	-0.484	–	-0.451
in vitro model: acidic pH 5.7, time point: terminal (~4-5 doublings, model-specific)	0.0598	0.992	-0.21	-1.3	-0.278
in vitro model: intracellular J774, time point: constant = terminal	–	0.989	–	-0.135	-0.472

Conditions	AUC25, [1]	Einf, [2]	FIC50, [5]	FIC90, [3]	GRinf, [4]
in vitro model: butyrate, time point: constant (~7 days, model-specific)	0.121	0.839	0.347	–	0.188
in vitro model: butyrate, time point: terminal (~4-5 doublings, model-specific)	0.118	0.915	0.398	2.41	0.216
in vitro model: cholesterol 0.05 mM, time point: constant (~7 days, model-specific)	0.128	0.607	–	–	0.0467
in vitro model: cholesterol 0.05 mM, time point: terminal (~4-5 doublings, model-specific)	0.101	0.887	0.59	–	-0.0969
in vitro model: cholesterol-high 0.2 mM, time point: constant (~7 days, model-specific)	0.0909	0.91	1.2	–	-0.177
in vitro model: cholesterol-high 0.2 mM, time point: terminal (~4-5 doublings, model-specific)	0.095	1	1.54	1.5	-0.819
in vitro model: dormancy (butyrate + nitrate, low O2), time point: constant (~7 days, model-specific)	0.105	0.9	-0.268	0.25	0.249
in vitro model: dormancy (butyrate + nitrate, low O2), time point: terminal (~4-5 doublings, model-specific)	0.0706	0.983	-0.19	0.408	-0.179
in vitro model: standard 7H9 glycerol, time point: constant = terminal	0.0562	0.896	-0.199	–	0.144
in vitro model: valerate, time point: constant (~7 days, model-specific)	0.054	0.761	0.449	–	0.201
in vitro model: valerate, time point: terminal (~4-5 doublings, model-specific)	0.0277	0.903	0.477	0.361	0.149
